Measured values reported in publication PMC6598759, “In vitro genotoxicity of nitroimidazoles as a tool in the search of new trypanocidal agents” (Memórias do Instituto Oswaldo Cruz, 2019).
“And” between values parts separate entries of the source, which are not always exact repeats. Equal values may be shown once. Each block holds one molecule with its values, some of them ahead of it.

Key:
Chagas disease = details: cited from earlier work
[1] = tested on: bloodstream trypomastigotes form Y strain of T. cruzi; experiment: In vitro trypanocidal assay; format: cell-based; details: Trypanosoma cruzi, read-out: IC50/24 h (concentration that produces 50% lysis of the parasites), trypomastigote forms, 37 °C
Protocol: In vitro trypanocidal assay - To accomplishment of the experiments were used bloodstream trypomastigotes form Y strain of T. cruzi, obtained at the peak of the parasitemia (7th day after infection) of infected Swiss albino mice.[34] The trypomastigotes underwent a differential centrifugation process for the separation of erythrocytes, leukocytes and concentration of the parasites in the plasma, and the purified parasites were resuspended in RPMI medium and cell concentration was determined by counting in the Neubauer chamber. Stock solution of each compound was prepared in dimethyl sulfoxide (DMSO), and the assays were performed in Dulbecco’s modified Eagle medium in 96-well plates. In the first well was placed twice the highest desired concentration of each compound, in a final volume of 200 μL, in the following wells were added 100 μL of medium supplemented with 10% foetal bovine serum (FBS) and 2% L-glutamine. Subsequently, 100 μL of parasite suspension (10^6 trypomastigotes) were added, resulting in a final concentration of 5 x 10^6 parasites/mL, incubated for 24 h at 37 °C under a 5% CO2 atmosphere and quantified in Neubauer’s chamber by light microscopy. […] At least four independent experiments were performed and the mean and standard deviation were calculated. Benznidazole (1) was used as a reference drug. The experiments were performed in accordance with the guidelines established by the Oswaldo Cruz Foundation Committee of Ethics for the Use of Animals (L 038/2018).

[2] = tested on: whole human blood cells (WHBC); experiment: Cytotoxicity assay (FDA/EtBr) in whole human blood cells; details: for percentage decrease in cell viability: 2 h, 37 °C; for lethality variation range: 2 h at 37 °C, compared to solvent-control
Protocol: In vitro treatment and cytotoxicity assay in whole human blood cells (WHBC) - Heparinised WHBC was obtained by venipuncture from healthy young non-smoking volunteers with no known recent exposures to genotoxic chemicals or radiation immediately before the assays. […] The cytotoxicity assay aims to establish the degree of cell viability after treatment with nitroimidazoles to define the ranges concentrations to be tested in the in vitro CA. Cell viability was determined at the end of the treatment using the fluorescein diacetate (FDA)/ethidium bromide (EtBr)-assay, in which viable cells are labelled in green, while dead ones display orange-stained nuclei. WHBC (50 μL) was mixed with an equal volume of the freshly prepared staining solution consisting of 30 μg/mL FDA plus 8 μg/mL EtBr in phosphate-buffered saline (PBS). Samples (50 μL) were spread on a microscope slide and covered with a coverslip and observed using a fluorescence microscope. Two hundred cells were analysed for each treatment.[32] The research project involving the use of human blood samples was approved by the Committee on Ethics in Research with Human Beings - CEP Fiocruz/IOC (CAAE: 41684815.3.0000.5248) under the consolidated opinion of CEP No. 1066061.

[3] = tested on: whole human blood cells (WHBC); experiment: In vitro alkaline comet assay (CA) in whole human blood cells; format: cell-based
Protocol: Methyl methane-sulfonate (MMS) (160 μM) (Sigma-Aldrich) was used as a positive control. […] Slides were prepared, lysed (pH 10; 4-5 °C) and processed as described earlier,[32] using a time of alkali denaturation of 20 min and electrophoresis (0.86 V/cm and 300 mA) of 20 min at a pH > 13. […] The DNA damage was expressed as percentage of cells into four classes and as arbitrary units (AU) according to the formula: AU = (0 […] 3), where n = the number of cells analysed in each class. The total DNA damage score in AU (TAU) for 200 cells can range from 0 TAU (200 undamaged cells) to 600 TAU (all cells maximally damaged).

[4] = tested on: whole human blood cells (WHBC); experiment: In vitro cytokinesis-block micronucleus assay (CBMN) with whole human blood cells; details: for MN formation compared to solvent-control: concentration range analysed; for result in the CBMN: overall call; for MNC in 2,000 BNC: positive control
Protocol: In vitro cytokinesis-block micronucleus assay (CBMN) with whole human blood cells (WHBC) - Heparinised WHBC samples were obtained by venipuncture from volunteers as described above. […] WHBC cultures exposed to mitomycin C (MMC) (1.0 µg/mL in water) (Bristol, USA) for 2 h or to N-deacetyl-N-methylcolchicine in water (Demecolcine: Sigma-Aldrich) 0.02 µg/mL for 28 h were used as positive control cultures. After the treatment, the WHBC cultures were centrifuged (900 rpm, 10 min) and washed with 5 mL PBS. […] CytB has cytokinesis-block activity leading to the formation of binucleate cells. […] The fixed cell suspension was dropped on a clean glass slide and the slide was air-dried on a heating plate (60 °C). Air-dried slides were stained with 60 µg/mL acridine orange in Sörensen buffer (0.03 M KH2PO4, 0.03 M Na2HPO4) for 3s, then they were embedded in distilled water and covered with a coverslip. MN showing bright green fluorescence were analysed using a fluorescence microscope at 400 X magnification. MN were scored in 2,000 binucleated cells (BNC) for culture and the number of the micronucleate cells (MNC) in 2,000 BNC was determined. Cytotoxicity was measured using the cytokinesis-block proliferation index (CBPI) and the replication index (RI) which were calculated from 500 cells. The CBPI indicates the average number of nuclei per cell, and may be used to calculate cell proliferation. The RI indicates the relative number of cell cycles per cell during the period of exposure to cytoB in treated cultures compared to control cultures and can be used to calculate the % cytostasis. CBPI was calculated according to the formula: CBPI = [(No. mononucleate cells) + (2 x No. binucleate cells) + (3 x No. multinucleate cells)] / N, where N indicates the total number of cells scored. RI (%) was calculated according to the formula:
RI %=((No. binucleate cells) + (2 x No. multinucleate cells)) ÷ (Total number of cells)T/((No. binucleate cells) + (2 x No. multinucleate cells)) ÷ (Total number of cells)C x 100
where T indicates treated cultures and C control cultures
Cytotoxicity was evidenced in the occurrence of reduction in CBPI or RI of cultures treated by test substances when compared to control cultures. The measurement of cytotoxicity was used to select the concentrations of the test substance to be analysed for the presence of MN. […] However, it was adopted in this work as the maximum concentration in CBMN one that induced a proliferation inhibition not exceeding about 50% established by ICH S2 (R1) for lymphocyte cultures.
The chi-square test for trend was performed to analyse if the increase of MNC was concentration-related.[30]

Salmonella typhimurium = details: cited from earlier work
[5] = 10,000 μM, relative to solvent-control

Compound: O=C(Cn1ccnc1[N+](=O)[O-])NCc1ccccc1 [Benznidazole, benznidazole]
serological cure (Chagas disease; adults with late chronic infection): 5-20% | digestive intolerance (Chagas disease; adverse event): 5-15% | general symptoms such as anorexia, asthenia, headache, and sleep disturbances (Chagas disease; adverse event): 40% | skin rash (Chagas disease; adverse event): 29-50% | discontinuation of treatment (Chagas disease; due to adverse events): 9-29% | IC50 [1]: 8.8 ± 1.1 µM

result in the in vitro CA [3]: positive
Compound: Cn1cnc([N+](=O)[O-])c1Nc1nnc(C(F)(F)F)[nH]1 [Compound 5]
percentage decrease in cell viability ([2]; 149 µM): 0% | percentage decrease in cell viability ([2]; 238 µM): 0% | percentage decrease in cell viability ([2]; 382 µM): 0% | percentage decrease in cell viability ([2]; 610 µM): 0% | percentage decrease in cell viability ([2]; 1,562 µM): 0% | percentage decrease in cell viability ([2]; 2,500 µM): 0% | percentage decrease in cell viability ([2]; 4,000 µM): 2.0% | percentage decrease in cell viability ([2]; 6,400 µM): 1.0% | percentage decrease in cell viability ([2]; 10,000 µM): 2.0% | lethality variation range ([2]; 149-10,000 µM): 1-4% | IC50 [1]: > 500 µM | concentrations at which a significant (p < 0.05) genotoxic effect was observed ([3]; human, 2 h): > 610 µM | CBPI ([4]; 150 µM, 4 h): 1.310 | NMNC/2000 binucleated cells ([4]; 150 µM, 4 h): 20 | RI (%) ([4]; 150 µM, 4 h): 151% | CBPI ([4]; 640 µM, 4 h): 1.228 | NMNC/2000 binucleated cells ([4]; 640 µM, 4 h): 8 | RI (%) ([4]; 640 µM, 4 h): 111% | CBPI ([4]; 1,600 µM, 4 h): 1.192 | NMNC/2000 binucleated cells ([4]; 1,600 µM, 4 h): 20 | RI (%) ([4]; 1,600 µM, 4 h): 95% | CBPI ([4]; 4,000 µM, 4 h): 1.340 | NMNC/2000 binucleated cells ([4]; 4,000 µM, 4 h): 24 | RI (%) ([4]; 4,000 µM, 4 h): 167% | CBPI ([4]; 10,000 µM, 4 h): 1.152 | NMNC/2000 binucleated cells ([4]; 10,000 µM, 4 h): 36 | RI (%) ([4]; 10,000 µM, 4 h): 78% | reduction of CBPI [4, 5]: 36% | reduction of RI [4, 5]: 22% | MN formation compared to solvent-control ([4]; 4 h): did not induce a significant increase in MN formation | result in the CBMN [4]: negative

Compound: Cn1cnc([N+](=O)[O-])c1-n1cccn1 [Compound 6]
concentration with cytotoxic activity (Salmonella typhimurium; TA98): 50 µg/mL | concentration with mutagenicity in TA100 (Salmonella typhimurium; TA100, absence and presence of S9 mixture, highest tested concentration): 50 µg/mL | concentration range with cytotoxic activity (Salmonella typhimurium; TA100 and TA1535 strains): 1.0 to 50 µg/mL | percentage decrease in cell viability ([2]; 149 µM): 0% | percentage decrease in cell viability ([2]; 238 µM): 4.0% | percentage decrease in cell viability ([2]; 382 µM): 0% | percentage decrease in cell viability ([2]; 610 µM): 0% | percentage decrease in cell viability ([2]; 1,562 µM): 0% | percentage decrease in cell viability ([2]; 2,500 µM): 6% | percentage decrease in cell viability ([2]; 4,000 µM): 0% | percentage decrease in cell viability ([2]; 6,400 µM): 0% | lethality variation range ([2]; 149-6,400 µM): 1-4% | IC50 [1]: > 500 µM | result in the in vitro CA [3]: positive | concentration with significant (p < 0.05) DNA damage ([3]; human, 2 h): 6,400 µM | cells with class 1 DNA damage ([3]; human, 2 h, 6400 µM): 10.5% | CBPI ([4]; 150 µM, 4 h): 1.184 | NMNC/2000 binucleated cells ([4]; 150 µM, 4 h): 32 | RI (%) ([4]; 150 µM, 4 h): 148% | CBPI ([4]; 640 µM, 4 h): 1.204 | NMNC/2000 binucleated cells ([4]; 640 µM, 4 h): 12 | RI (%) ([4]; 640 µM, 4 h): 132% | CBPI ([4]; 1,600 µM, 4 h): 1.134 | NMNC/2000 binucleated cells ([4]; 1,600 µM, 4 h): 16 | RI (%) ([4]; 1,600 µM, 4 h): 114% | CBPI ([4]; 4,000 µM, 4 h): 1.068 | NMNC/2000 binucleated cells ([4]; 4,000 µM, 4 h): 12 | RI (%) ([4]; 4,000 µM, 4 h): 56% | CBPI ([4]; 10,000 µM, 4 h): 1.036 | RI (%) ([4]; 10,000 µM, 4 h): 24% | maximum concentration used in MN analysis (inducing in the maximum 50% reduction of CBPI or RI) ([4]; 4 h, relative to solvent-control): 4,000 μM | MN formation compared to solvent-control ([4]; 4 h): did not induce a significant increase in MN formation | result in the CBMN [4]: negative

Compound: CN[C@H]1CCc2cc(OC)c(OC)c(OC)c2-c2ccc(OC)c(=O)cc21 [Demecolcine, N-deacetyl-N-methylcolchicine, reference compound]
MNC in 2,000 BNC ([4]; 0.02 μg/mL, 28 h): 37 and 42 and 30

Compound: CO[C@@]12[C@H](COC(N)=O)C3=C(C(=O)C(C)=C(N)C3=O)N1C[C@@H]1N[C@@H]12 [MMC, mitomycin C, reference compound]
MNC in 2,000 BNC ([4]; 1.0 μg/mL, 2 h): 38 and 56 and 40

Compound: COS(C)(=O)=O [MMS, Methyl methane-sulfonate, reference compound]
cells with class 3 DNA damage ([3]; 160 µM): 87.7% | TAU mean value (total DNA damage score) ([3]; 160 μM, positive control, p < 0.001 vs control): 554.2 ± 9.9 TAU

Compound: CC1CS(=O)(=O)CCN1/N=C/c1ccc([N+](=O)[O-])o1 (centres unmarked) [Nfx, nifurtimox]
discontinuation of the treatment (Chagas disease; adults with chronic infection): 14-75% | frequency of adverse effects (Chagas disease; adults with chronic infection): 43.0-97.5%
